# From ChEMBL document CHEMBL4177590, “Design, synthesis and biological evaluation of WZ4002 analogues as EGFR inhibitors” (Bioorg Med Chem Lett, 2017)
# How the values were obtained:
# [1] = system: NCI-H460; assay: Potency index, ratio of gefitinib IC50 to compound IC50 for human NCI-H460 cells; type: functional
# [2] = system: NCI-H460; assay: Potency index, ratio of WZ4002 IC50 to compound IC50 for human NCI-H460 cells; type: functional
Structure (SMILES),Ratio IC50 [1],Ratio IC50 [2]
COc1cc(N2CCN(C)CC2)ccc1Nc1ncc(Cl)c(Oc2ccccc2NC(=O)CCOCc2ccccc2)n1,6 - 10,6 - 10
COc1cc(N2CCN(C)CC2)ccc1Nc1ncc(Cl)c(Oc2ccccc2NC(=O)CO)n1,6 - 10,6 - 10
COc1cc(N2CCN(C)CC2)ccc1Nc1ncc(Cl)c(Oc2ccccc2NC(=O)CCO)n1,6 - 10,6 - 10
COc1cc(N2CCN(C)CC2)ccc1Nc1ncc(Cl)c(Oc2ccccc2NC(=O)COCc2ccccc2)n1,6 - 10,6 - 10
